Assay results reported in US8067424B2, “Selective inhibitors for cyclin-dependent kinases” (Emory University, priority 2007, dated 2011).
pIC50: −log10 of the molar value. Like-named read-outs stand apart in the source and are kept apart here.

Assays:
Format in all cases: biochemical
Lck = Lck (Homo sapiens, UniProt P06239); assay: Kinase screen: LCK assay
Description: (§1) Generally, the same procedure was used for all assays. Since the total assay volume was 25.5 microliters, 0.5 microliters of inhibitors at 51× assay concentration were added to the plates before any other addition.
(§2) The basic procedure was to add 0.5 microliters inhibitor/control in DMSO to plate. Fifteen microliters of enzyme/substrate/buffer mix were added and incubated for 5 min. Ten microliters MgATP at the relevant concentration were added and incubated for 30 min. The assay was stopped by adding 5 microliters of 3% orthophosphoric acid. The assay was transferred to a p81 filter plate and read in a scintillation counter of 30 sec/well. Note that this assay procedure was not followed for MKK1, which instead involved a two-step assay, and PKC alpha, which required the addition of lipid vesicles.
(500-1000 cpm/pmole) and incubated for 15 min at room temperature Assays were stopped by addition of 5 μl of 0.5 M (3%) orthophosphoric acid and then harvested onto P81 Unifilter plates with a wash buffer of 50 mM orthophosphoric acid.

CAMKKβ = CAMKKβ (Homo sapiens, UniProt Q96RR4); assay: Kinase screen: CAMKKb assay
Description: as §1, §2
(500-1000 cpm/pmole) and incubated for 30 mins at room temperature. […] Assays were harvested onto P81 Unifilter plates using a wash buffer of 50 mM orthophosphoric acid.

PDK1 = biological target: T1, PDK1 (Homo sapiens, UniProt O15530); assay: Kinase screen: PDK1 assay
T1 sequence (O15530 1-556): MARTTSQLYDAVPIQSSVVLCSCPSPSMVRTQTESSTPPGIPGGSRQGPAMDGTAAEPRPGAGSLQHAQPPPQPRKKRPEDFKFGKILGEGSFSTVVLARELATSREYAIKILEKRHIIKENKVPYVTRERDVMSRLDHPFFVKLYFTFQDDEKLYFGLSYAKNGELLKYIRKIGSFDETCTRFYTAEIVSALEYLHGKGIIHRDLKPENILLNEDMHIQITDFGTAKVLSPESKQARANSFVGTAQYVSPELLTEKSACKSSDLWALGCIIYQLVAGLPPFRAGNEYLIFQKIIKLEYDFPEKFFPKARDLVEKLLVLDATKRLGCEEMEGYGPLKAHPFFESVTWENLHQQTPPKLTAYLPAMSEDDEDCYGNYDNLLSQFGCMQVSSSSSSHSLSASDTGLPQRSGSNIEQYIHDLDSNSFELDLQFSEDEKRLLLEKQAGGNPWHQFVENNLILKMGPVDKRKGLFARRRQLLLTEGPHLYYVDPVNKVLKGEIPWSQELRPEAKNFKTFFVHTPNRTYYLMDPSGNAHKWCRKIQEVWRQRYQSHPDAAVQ
Description: as §1, §2
(50-1000 cpm/pmole) and incubated for 30 min at room temperature Assays were stopped by addition of 5 μl of 0.5 M (3%) orthophosphoric acid and then harvested onto P81 Unifilter plates with a wash buffer of 50 mM orthophosphoric acid.

BTK = BTK (Homo sapiens, UniProt Q06187); assay: Kinase screen: BTK assay; settings: 10 micromolar compound; for remaining activity at 10 µM: read-out: mean activity remaining (as a percentage of the original activity), BTK
Description: as §1, §2
(50-1000 cpm/pmole) and incubated for 30 min at room temperature. Assays were stopped by addition of 5 μl of 0.5 M (3%) orthophosphoric acid and then harvested onto P81 Unifilter plates with a wash buffer of 50 mM orthophosphoric acid.

CDK9/cyclin T complex = biological target: T2, CDK9/cyclin T complex (Homo sapiens, UniProt P50750); assay: CDK9/cyclin T kinase assay (as for CDK7); settings: for remaining activity at 0.1 µM: 100 nM, mean of three (standard deviation), read-out: CDK9 % remaining kinase activity after incubation with 100 nM of compound; for pIC50: Table 7, mean of three experiments, read-out: CDK9 kinase inhibition in vitro (IC50)
T2 construct: purchased Proqinase GmbH, Germany
Procedure, shortened: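 Run as the CDK7 protocol with 50 ng CDK2/cyclin A or 100 ng CDK9/cyclin T; compound 30 min at 30 °C, then 2 μM ATP final for 20 min at 30 °C. ATP depletion by luciferase luminescence (PKLight), triplicate, normalised to no-enzyme and enzyme controls.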

YES1 = YES1 (Homo sapiens, UniProt P07947); assay: Kinase screen: YES1 assay; settings: 10 micromolar compound; for remaining activity at 10 µM: read-out: mean activity remaining (as a percentage of the original activity), YES1
Description: as §1, §2
YES1 assay: YES1 (5-20 mU diluted in 50 mM Tris pH 7.5, 0.1 mM EGTA, 1 mg/ml BSA) was assayed against a substrate peptide (Poly Glut Tyr) in a final volume of 25.5 μl containing 50 mM Tris pH 7.5, 1 mg/ml substrate peptide, 10 mM magnesium acetate and 0.02 mM [33P-g-ATP] (50-1000 cpm/pmole) and incubated for 30 min at room temperature. Assays were stopped by addition of 5 μl of 0.5 M (3%) orthophosphoric acid and then harvested onto P81 Unifilter plates with a wash buffer of 50 mM orthophosphoric acid.

CDK 5 = CDK 5 (Homo sapiens, UniProt Q00535); assay: CDK5 in vitro kinase inhibition (protocol similar to Example 14); settings: for remaining activity at 0.1 µM: 100 nM, mean of three (standard deviation), read-out: CDK5 % remaining kinase activity after incubation with 100 nM of compound; for pIC50: Table 7, mean of three experiments
[1] = 10 micromolar compound, read-out: mean activity remaining (as a percentage of the original activity), Lck
[2] = 0.5 h, read-out: mean activity remaining (as a percentage of the original activity), CAMK Kb
[3] = 10 micromolar compound, read-out: mean activity remaining (as a percentage of the original activity), PDK1

Sequence of YES1 (P07947 whole entry, species assumed): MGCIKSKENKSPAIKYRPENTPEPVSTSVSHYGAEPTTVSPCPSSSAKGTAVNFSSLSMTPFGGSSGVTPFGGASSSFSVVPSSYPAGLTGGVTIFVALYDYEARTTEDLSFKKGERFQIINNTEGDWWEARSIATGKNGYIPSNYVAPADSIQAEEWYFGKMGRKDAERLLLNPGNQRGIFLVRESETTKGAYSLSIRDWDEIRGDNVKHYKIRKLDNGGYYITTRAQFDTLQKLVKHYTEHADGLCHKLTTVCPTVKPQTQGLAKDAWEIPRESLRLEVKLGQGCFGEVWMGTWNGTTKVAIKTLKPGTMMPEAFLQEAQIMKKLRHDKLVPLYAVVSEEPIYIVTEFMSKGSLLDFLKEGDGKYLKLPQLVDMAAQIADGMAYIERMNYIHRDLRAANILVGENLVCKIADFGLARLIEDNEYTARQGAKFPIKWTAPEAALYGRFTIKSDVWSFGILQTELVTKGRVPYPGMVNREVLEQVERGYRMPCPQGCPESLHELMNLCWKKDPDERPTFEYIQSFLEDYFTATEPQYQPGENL
Sequence of CDK 5 (Q00535 whole entry): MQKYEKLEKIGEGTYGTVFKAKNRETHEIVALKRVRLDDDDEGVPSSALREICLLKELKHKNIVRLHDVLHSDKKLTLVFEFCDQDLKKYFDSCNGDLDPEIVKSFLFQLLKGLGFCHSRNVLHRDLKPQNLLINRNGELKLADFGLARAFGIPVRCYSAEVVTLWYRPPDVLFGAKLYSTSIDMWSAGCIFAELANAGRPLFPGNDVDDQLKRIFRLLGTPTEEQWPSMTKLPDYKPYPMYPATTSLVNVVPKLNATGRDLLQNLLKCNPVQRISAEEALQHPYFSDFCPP
Sequence of CDK 5 (Q15078 whole entry partner): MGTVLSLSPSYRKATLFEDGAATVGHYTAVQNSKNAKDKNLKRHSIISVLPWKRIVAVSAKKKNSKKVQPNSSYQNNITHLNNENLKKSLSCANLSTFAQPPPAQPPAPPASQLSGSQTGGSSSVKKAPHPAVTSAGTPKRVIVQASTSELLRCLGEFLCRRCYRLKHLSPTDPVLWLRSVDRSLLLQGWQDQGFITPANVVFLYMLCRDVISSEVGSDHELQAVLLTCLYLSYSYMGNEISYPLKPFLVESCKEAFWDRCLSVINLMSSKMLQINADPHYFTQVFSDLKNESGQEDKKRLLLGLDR
Sequence of Lck (P06239 whole entry, species assumed): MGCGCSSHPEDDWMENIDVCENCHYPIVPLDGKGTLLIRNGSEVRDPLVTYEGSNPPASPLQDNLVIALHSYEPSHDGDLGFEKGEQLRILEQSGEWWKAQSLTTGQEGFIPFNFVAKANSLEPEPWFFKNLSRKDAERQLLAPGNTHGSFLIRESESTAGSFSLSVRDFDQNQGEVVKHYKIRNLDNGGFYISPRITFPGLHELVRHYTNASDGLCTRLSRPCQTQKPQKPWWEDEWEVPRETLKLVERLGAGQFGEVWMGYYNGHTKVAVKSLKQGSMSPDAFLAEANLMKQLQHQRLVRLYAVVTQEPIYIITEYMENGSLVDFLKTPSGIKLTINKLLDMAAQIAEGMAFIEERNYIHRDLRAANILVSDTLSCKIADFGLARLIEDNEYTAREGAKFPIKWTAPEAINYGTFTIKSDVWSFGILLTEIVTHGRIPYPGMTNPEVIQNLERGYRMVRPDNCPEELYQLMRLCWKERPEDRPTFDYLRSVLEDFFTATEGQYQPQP
Sequence of BTK (Q06187 whole entry, species assumed): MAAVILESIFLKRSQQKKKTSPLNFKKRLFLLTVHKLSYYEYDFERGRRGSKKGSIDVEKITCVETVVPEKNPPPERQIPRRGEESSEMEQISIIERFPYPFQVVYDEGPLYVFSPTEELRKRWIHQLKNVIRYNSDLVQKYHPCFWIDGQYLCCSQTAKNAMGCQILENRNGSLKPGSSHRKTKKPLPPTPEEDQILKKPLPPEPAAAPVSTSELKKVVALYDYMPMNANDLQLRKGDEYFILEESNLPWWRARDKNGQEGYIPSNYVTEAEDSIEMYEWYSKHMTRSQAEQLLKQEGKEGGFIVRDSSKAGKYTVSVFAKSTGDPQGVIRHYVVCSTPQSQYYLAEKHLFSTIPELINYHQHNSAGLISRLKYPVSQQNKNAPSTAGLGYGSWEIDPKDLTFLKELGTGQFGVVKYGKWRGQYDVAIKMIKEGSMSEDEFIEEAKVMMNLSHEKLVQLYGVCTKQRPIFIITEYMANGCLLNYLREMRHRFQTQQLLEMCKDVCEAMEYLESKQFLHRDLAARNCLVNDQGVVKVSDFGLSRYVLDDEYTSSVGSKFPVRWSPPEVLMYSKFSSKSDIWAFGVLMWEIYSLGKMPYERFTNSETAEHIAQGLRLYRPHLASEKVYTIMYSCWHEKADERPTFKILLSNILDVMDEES
T2 sequence (P50750 whole entry): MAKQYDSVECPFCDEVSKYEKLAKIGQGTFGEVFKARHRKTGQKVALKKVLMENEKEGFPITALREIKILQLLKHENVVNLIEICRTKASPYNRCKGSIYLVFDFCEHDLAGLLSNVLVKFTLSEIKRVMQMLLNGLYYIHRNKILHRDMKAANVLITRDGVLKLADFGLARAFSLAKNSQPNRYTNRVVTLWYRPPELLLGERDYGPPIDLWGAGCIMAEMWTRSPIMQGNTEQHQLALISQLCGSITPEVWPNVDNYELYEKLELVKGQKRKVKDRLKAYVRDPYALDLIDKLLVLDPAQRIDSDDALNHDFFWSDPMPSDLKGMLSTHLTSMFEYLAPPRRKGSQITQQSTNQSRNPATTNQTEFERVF
T2 sequence (O60563 whole entry partner): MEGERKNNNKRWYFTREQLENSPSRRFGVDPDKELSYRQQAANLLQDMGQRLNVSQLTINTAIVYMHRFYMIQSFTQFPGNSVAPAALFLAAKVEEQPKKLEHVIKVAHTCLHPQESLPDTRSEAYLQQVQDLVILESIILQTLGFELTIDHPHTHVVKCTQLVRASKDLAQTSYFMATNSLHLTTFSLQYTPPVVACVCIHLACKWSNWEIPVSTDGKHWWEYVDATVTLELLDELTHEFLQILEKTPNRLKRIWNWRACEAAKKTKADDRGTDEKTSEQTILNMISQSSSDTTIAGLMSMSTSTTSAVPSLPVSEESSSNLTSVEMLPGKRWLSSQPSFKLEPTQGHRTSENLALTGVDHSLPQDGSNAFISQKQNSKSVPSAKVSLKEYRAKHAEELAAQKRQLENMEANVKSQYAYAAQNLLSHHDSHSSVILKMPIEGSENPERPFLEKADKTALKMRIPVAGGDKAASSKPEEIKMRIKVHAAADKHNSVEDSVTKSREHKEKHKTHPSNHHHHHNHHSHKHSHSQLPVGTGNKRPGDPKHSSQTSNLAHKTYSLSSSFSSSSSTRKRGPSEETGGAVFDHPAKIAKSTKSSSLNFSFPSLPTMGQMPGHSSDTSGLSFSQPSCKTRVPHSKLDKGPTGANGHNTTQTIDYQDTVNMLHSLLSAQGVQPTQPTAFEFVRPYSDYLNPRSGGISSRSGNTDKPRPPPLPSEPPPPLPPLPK

Row | SMILES | remaining activity at 10 µM (Lck; Lck, 10 μM, read-out: Mean Remaining Enzyme Activity (%)) | remaining activity at 10 µM (CAMKKβ; CAMKKβ, 10 μM, read-out: Mean Remaining Enzyme Activity (%)) | remaining activity at 10 µM (PDK1; PDK1, 10 μM, read-out: Mean Remaining Enzyme Activity (%)) | remaining activity at 10 µM (BTK) | remaining activity at 10 µM (Lck; [1]) | remaining activity at 0.1 µM (CDK9/cyclin T complex) | pIC50 (CDK9/cyclin T complex) | remaining activity at 10 µM (YES1) | remaining activity at 10 µM (CAMKKβ; [2]) | remaining activity at 10 µM (PDK1; [3]) | remaining activity at 0.1 µM (CDK 5) | pIC50 (CDK 5) | mean activity remaining (as a percentage of the original activity), BTK (BTK) | mean activity remaining (as a percentage of the original activity), Lck (Lck; 10 micromolar compound) | mean activity remaining (as a percentage of the original activity), YES1 (YES1) | mean activity remaining (as a percentage of the original activity), CAMK Kb (CAMKKβ; 10 micromolar compound) | mean activity remaining (as a percentage of the original activity), PDK1 (PDK1; 10 micromolar compound)
1 | CC(C)c1cnn2c(NCc3ccccc3)cc(NCCCCCCCN)nc12 [BS-181] | 95% | 67% | 80% | – | – | – | – | – | – | – | – | – | – | – | – | – | –
2 | C=C[C@H](CO)Nc1cc(NCc2ccccc2)n2ncc(C(C)C)c2n1 [ICEC0065] | – | – | – | 94% | 74% | 100% | < 6.00 | 90% | 31% | 78% | 83% | < 6.00 | – | – | – | – | –
3 | CC[C@H](CO)Nc1cc(NCc2ccccc2)n2ncc(C(C)C)c2n1 [ICEC0067] | – | – | – | 84% | 70% | 85% | 7.00 | 87% | 29% | 87% | 84% | – | – | – | – | – | –
4 | CC(C)c1cnn2c(NCc3ccccc3)cc(N[C@@H](CO)[C@H](O)CO)nc12 [ICEC0318, (3S)-3-(7-(Benzylamino)-3-isopropylpyrazolo[1,5-a]pyrimidin-5-ylamino)butane-1,2,4-triol] | – | – | – | 91% | 85% | 56% | – | 89% | 23% | 84% | 14% | 7.52 | – | – | – | – | –
5 | CC(C)c1cnn2c(NCc3ccccc3F)cc(NCCCCCN)nc12 [ICEC-0232] | – | – | – | – | – | – | – | – | – | – | – | – | 90% | 62% | 106% | 18% | 101%
